Experimental data taken from patent US20260258036A1, “INHIBITORS OF HUMAN ALDOSTERONE SYNTHASE (CYP11B2)” («TARGET MEDICALS» LIMITED LIABILITY COMPANY, priority 2022, published 2026).

Target: T1, recombinant CYP11B2 (Homo sapiens, UniProt P19099)
T1 sequence (P19099 25-503): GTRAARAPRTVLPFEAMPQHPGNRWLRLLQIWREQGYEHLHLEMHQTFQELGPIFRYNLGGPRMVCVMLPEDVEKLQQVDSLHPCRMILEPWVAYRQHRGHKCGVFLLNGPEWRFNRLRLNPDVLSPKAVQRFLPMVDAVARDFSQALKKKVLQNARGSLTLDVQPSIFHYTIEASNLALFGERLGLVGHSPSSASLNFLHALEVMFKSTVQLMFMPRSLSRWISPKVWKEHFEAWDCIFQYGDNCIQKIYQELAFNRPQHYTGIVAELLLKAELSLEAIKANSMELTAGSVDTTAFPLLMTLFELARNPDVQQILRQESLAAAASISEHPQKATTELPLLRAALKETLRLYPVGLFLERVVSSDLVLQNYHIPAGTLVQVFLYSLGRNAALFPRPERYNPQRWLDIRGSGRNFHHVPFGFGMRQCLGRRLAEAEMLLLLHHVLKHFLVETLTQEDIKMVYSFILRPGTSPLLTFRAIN
Assay: Inhibition of CYP11B2 activity in a reconstructed enzyme system (HPLC with UV detector)
Type: biochemical
Settings: compounds 2_xx, 3_xx, 4_01, test compound final concentration ≤2 μM, corticosterone substrate, 30 minutes at 37° C.; for inhibition at 2 µM: read-out: Level of CYP11B2 activity inhibition

Question: How did the “Level of CYP11B2 activity inhibition” value turn out when `Cl.O=S(=O)(c1cc(F)c(N2CCNCC2)c(F)c1)n1ccc2c(-c3ccccn3)cncc21` [Compound 3_27, 1-((3,5-difluoro-4-(piperazin-1-yl)phenyl)sulfonyl)-4-(pyridin-2-yl)-1H-pyrrolo[2,3-c]pyridine] was run?
Answer: Its value is “++ (inhibition of CYP11B2 activity in the range of 20-100% (++))”.

Question: How did the inhibition at 2 µM turn out when `N#Cc1ccc(-c2cncc3c2ccn3S(=O)(=O)c2cc(F)c(N3CC4CNCC4C3)c(F)c2)cn1` (stereo not drawn) [Compound 3_28, 5-(1-((3,5-difluoro-4-(hexahydropyrrolo[3,4-c]pyrrol-2(1H)-yl)phenyl)sulfonyl)-1H-pyrrolo[2,3-c]pyridin-4-yl)picolinonitrile] was run?
Answer: Its inhibition at 2 µM is 35 to 100%.

Question: Which inhibition at 2 µM does the source give for `CN1CCN(c2c(F)cc(S(=O)(=O)n3ccc4c(-c5ccccn5)cncc43)cc2F)CC1` [Compound 4_01, 1-((3,5-difluoro-4-(4-methylpiperazin-1-yl)phenyl)sulfonyl)-4-(pyridin-2-yl)-1H-pyrrolo[2,3-c]pyridine] here?
Answer: Its inhibition at 2 µM is 35 to 100%.
